Earlier results on one molecule are cited in patent publication US10112939B2, “Tied-back benzamide derivatives as potent rock inhibitors” (Bristol-Myers Squibb Company, priority 2014, dated 2018).

Read-outs that look alike come from different tables or passages of the source.

Data set [1] concerns spontaneously hypertensive rat, renal hypertensive rat and deoxycortisone acetate salt hypertensive rat models. The note with it: cited from earlier work.
The subject of data set [2] is neointimal formation in rats. The note with it: balloon injury model; cited from earlier work.
In another data set the test system is Dahl salt-sensitive rats. The following applies: rat, in vivo; cited from earlier work.

With `C[C@@H](N)[C@H]1CC[C@H](C(=O)Nc2ccncc2)CC1` [Example Y-27632, Y-27632], the blood pressure entry in data set [1] (control rats) was “only a minor effect on blood pressure”; in data set [1] (three rat models of hypertension), “significantly decrease blood pressure”. Also, the neointimal formation result in data set [2] is given as “inhibited neointimal formation”. For the same molecule, the “ventricular hypertrophy, fibrosis and function” value in the data set with Dahl salt-sensitive rats is “improve ventricular hypertrophy, fibrosis and function”.
